From patent publication US20240425500A1 (priority 2021, published 2024)

tested on: Pythium ultimum; experiment: Pythium ultimum / liquid culture (seedling damping off); format: cell-based; settings: Globisporangium ultimum, liquid culture in PDB, 24 °C, 2-3 days after application, read-out: control of Pythium ultimum (inhibition of growth, photometric) compared to untreated control
Method: Pythium ultimum/Liquid Culture (Seedling Damping Off):
Mycelia fragments and oospores of a newly grown liquid culture of the fungus are directly mixed into nutrient broth (PDB potato dextrose broth). After placing a (DMSO) solution of test compound into a microtiter plate (96-well format), the nutrient broth containing the fungal mycelia/spore mixture is added. The test plates are incubated at 24° C. and the inhibition of growth is determined photometrically 2-3 days after application.

Q: Which inhibition at 20 ppm does the source give for `COC(=O)Nc1ccc(-c2cnc3ccc(C(=O)N(C)c4ccnc(C)c4)cn23)cc1` [Compound 12, methyl N-[4-[6-[methyl-(2-methyl-4-pyridyl)carbamoyl]imidazo [1,2-a]pyridin-3-yl]phenyl]carbamate] here?
A: ≥ 80%

Q: With `COC(=O)Nc1ccc(-c2cnc3ccc(C(=O)N(C)c4ccc(C)c(C)c4)cn23)cc1` [Compound 13, methyl N-[4-[6-[(3,4-dimethylphenyl)-methyl-carbamoyl]imidazo[1,2-a]pyridin-3-yl]phenyl]carbamate] as the compound, how does the inhibition at 20 ppm read?
A: ≥ 80%

Q: For `COC(=O)Nc1ccc(-c2cnc3ccc(C(=O)N(C)c4ccc(C)cc4)cn23)cc1` [Compound 16, methyl N-[4-[6-[methyl (p-tolyl)carbamoyl]imidazo [1,2-a]pyridin-3-yl]phenyl]carbamate], which inhibition at 20 ppm is on record?
A: ≥ 80%

Q: `COC(=O)Nc1ccc(-c2cnc3cc(C)c(C(=O)N(C)c4ccc(Cl)cc4)cn23)cc1` [Compound 18, methyl N-[4-[6-[(4-chlorophenyl)-methyl-carbamoyl]-7-methyl-imidazo[1,2-a]pyridin-3-yl]phenyl]carbamate] was tested. Which inhibition at 20 ppm did it give?
A: ≥ 80%

Q: `COC(=O)Nc1ccc(-c2cnc3ccc(C(=O)N(C)c4ccncc4)cn23)cc1` [Compound 24, methyl N-[4-[6-[methyl(4-pyridyl)carbamoyl]imidazo [1,2-a]pyridin-3-yl]phenyl]carbamate] was tested. Which inhibition at 20 ppm did it give?
A: ≥ 80%

Q: For `COC(=O)Nc1ccc(-c2cnc3ccc(C(=O)N(CC4CC4)c4ccc(Cl)cc4)cn23)cc1` [Compound 28, methyl N-[4-[6-[(4-chlorophenyl)-(cyclopropylmethyl)carbamoyl]imidazo[1,2-a]pyridin-3-yl]phenyl]carbamate], which inhibition at 20 ppm is on record?
A: ≥ 80%

Q: With `COC(=O)Nc1ccc(-c2cnc3ccc(C(=O)N(CC(F)(F)F)c4ccc(Cl)cc4)cn23)cc1` [Compound 29, methyl N-[4-[6-[(4-chlorophenyl)-(2,2,2-trifluoroethyl)carbamoyl]imidazo [1,2-a]pyridin-3-yl]phenyl]carbamate] as the compound, how does the inhibition at 20 ppm read?
A: ≥ 80%

Q: With `CCCN(C(=O)c1ccc2ncc(-c3ccc(NC(=O)OC)cc3)n2c1)c1ccc(Cl)cc1` [Compound 30, methyl N-[4-[6-[(4-chlorophenyl)-propyl-carbamoyl]imidazo[1,2-a]pyridin-3-yl]phenyl]carbamate] as the compound, how does the inhibition at 20 ppm read?
A: ≥ 80%

Q: How did the inhibition at 20 ppm turn out when `C#CCN(C(=O)c1ccc2ncc(-c3ccc(NC(=O)OC)cc3)n2c1)c1ccc(Cl)cc1` [Compound 33, methyl N-[4-[6-[(4-chlorophenyl)-prop-2-ynyl-carbamoyl]imidazo[1,2-a]pyridin-3-yl]phenyl]carbamate] was run?
A: ≥ 80%

Q: Which inhibition at 20 ppm does the source give for `COC(=O)Nc1ccc(-c2cnc3cc(Br)c(C(=O)N(C)c4ccc(Cl)cc4)cn23)cc1` [Compound 34, methyl N-[4-[7-bromo-6-[(4-chlorophenyl)-methyl-carbamoyl]imidazo[1,2-a]pyridin-3-yl]phenyl]carbamate] here?
A: ≥ 80%

Q: Which inhibition at 20 ppm does the source give for `COC(=O)Nc1ccc(-c2cnc3cc(OC)c(C(=O)N(C)c4ccc(Cl)cc4)cn23)cc1` [Compound 39, methyl N-[4-[6-[(4-chlorophenyl)-methyl-carbamoyl]-7-methoxy-imidazo[1,2-a]pyridin-3-yl]phenyl]carbamate] here?
A: ≥ 80%

Q: `COC(=O)Nc1ccc(-c2cnc3cc(C#N)c(C(=O)N(C)c4ccc(Cl)cc4)cn23)cc1` [Compound 41, methyl N-[4-[6-[(4-chlorophenyl)-methyl-carbamoyl]-7-cyano-imidazo[1,2-a]pyridin-3-yl]phenyl]carbamate] was tested. Which inhibition at 20 ppm did it give?
A: ≥ 80%

Q: How did the inhibition at 20 ppm turn out when `COC(=O)Nc1ccc(-c2cnc3cc(F)c(C(=O)N(C)c4ccc(Cl)cc4)cn23)cc1` [Compound 42, methyl N-[4-[6-[(4-chlorophenyl)-methyl-carbamoyl]-7-fluoro-imidazo[1,2-a]pyridin-3-yl]phenyl]carbamate] was run?
A: ≥ 80%

Q: With `COC(=O)Nc1ccc(-c2cnc3ccc(C(=O)N(C)c4cccc(C)c4)cn23)cn1` [Compound 54, methyl N-[5-[6-[methyl(m-tolyl)carbamoyl]imidazo [1,2-a]pyridin-3-yl]-2-pyridyl]carbamate] as the compound, how does the inhibition at 20 ppm read?
A: ≥ 80%

Q: For `COC(=O)Nc1ccc(-c2cnc3ccc(C(=O)N(C)c4cc(C)cc(OC)c4)cn23)cn1` [Compound 59, methyl N-[5-[6-[(3-methoxy-5-methyl-phenyl)-methyl-carbamoyl]imidazo[1,2-a]pyridin-3-yl]-2-pyridyl]carbamate], which inhibition at 20 ppm is on record?
A: ≥ 80%

Q: For `COC(=O)Nc1ccc(-c2cnc3ccc(C(=O)N(C)c4ccc(F)nc4)cn23)cn1` [Compound 60, methyl N-[5-[6-[(6-fluoro-3-pyridyl)-methyl-carbamoyl]imidazo[1,2-a]pyridin-3-yl]-2-pyridyl]carbamate], which inhibition at 20 ppm is on record?
A: ≥ 80%

Q: Which inhibition at 20 ppm does the source give for `COC(=O)Nc1ccc(-c2cnc3ccc(C(=O)N(C)c4ccc(C)c(C)c4)cn23)cn1` [Compound 65, methyl N-[5-[6-[(3,4-dimethylphenyl)-methyl-carbamoyl]imidazo[1,2-a]pyridin-3-yl]-2-pyridyl]carbamate] here?
A: ≥ 80%

Q: `COC(=O)Nc1ccc(-c2cnc3ccc(C(=O)N(C)c4ccc(OC(F)F)cc4)cn23)cn1` [Compound 66, methyl N-[5-[6-[[4-(difluoromethoxy)phenyl]-methyl-carbamoyl]imidazo[1,2-a]pyridin-3-yl]-2-pyridyl]carbamate] was tested. Which inhibition at 20 ppm did it give?
A: ≥ 80%

Q: `COC(=O)Nc1ccc(-c2cnc3ccc(C(=O)N(C)c4ccc(Br)cc4)cn23)cn1` [Compound 68, methyl N-[5-[6-[(4-bromophenyl)-methyl-carbamoyl]imidazo[1,2-a]pyridin-3-yl]-2-pyridyl]carbamate] was tested. Which inhibition at 20 ppm did it give?
A: ≥ 80%

Q: How did the inhibition at 20 ppm turn out when `COC(=O)Nc1ccc(-c2cnc3ccc(C(=O)N(C)c4cccc(Br)c4)cn23)cn1` [Compound 69, methyl N-[5-[6-[(3-bromophenyl)-methyl-carbamoyl]imidazo[1,2-a]pyridin-3-yl]-2-pyridyl]carbamate] was run?
A: ≥ 80%

Q: `COC(=O)Nc1ccc(-c2cnc3ccc(C(=O)N(C)c4cccc(C5CC5)c4)cn23)cn1` [Compound 72, methyl N-[5-[6-[(3-cyclopropylphenyl)-methyl-carbamoyl]imidazo[1,2-a]pyridin-3-yl]-2-pyridyl]carbamate] was tested. Which inhibition at 20 ppm did it give?
A: ≥ 80%

Q: `COC(=O)CN(C(=O)c1ccc2ncc(-c3ccc(NC(=O)OC)nc3)n2c1)c1ccc(F)c(OC)c1` [Compound 91, methyl 2-(4-fluoro-3-methoxy-N-[3-[6-(methoxycarbonyl-amino)-3-pyridyl]imidazo[1,2-a]pyridine-6-carbonyl]anilino)acetate] was tested. Which inhibition at 20 ppm did it give?
A: ≥ 80%

Q: With `COC(=O)Nc1ccc(-c2cnc3ccc(C(=O)N(C)c4ccc(C(C)=O)cc4)cn23)cn1` [Compound 104, methyl N-[5-[6-[(4-acetylphenyl)-methyl-carbamoyl]imidazo[1,2-a]pyridin-3-yl]-2-pyridyl]carbamate] as the compound, how does the inhibition at 20 ppm read?
A: ≥ 80%

Q: `COC(=O)Nc1ccc(-c2cnc3ccc(C(=O)N(CC#N)c4ccccc4)cn23)cn1` [Compound 108, methyl N-[5-[6-[cyanomethyl(phenyl)carbamoyl]imidazo[1,2-a]pyridin-3-yl]-2-pyridyl] carbamate] was tested. Which inhibition at 20 ppm did it give?
A: ≥ 80%

Q: `COC(=O)Nc1ccc(-c2cnc3ccc(C(=O)N(CCO)c4ccccc4)cn23)cn1` [Compound 112, methyl N-[5-[6-[2-hydroxyethyl(phenyl)carbamoyl]imidazo [1,2-a]pyridin-3-yl]-2-pyridyl]carbamate] was tested. Which inhibition at 20 ppm did it give?
A: ≥ 80%

Q: For `COC(=O)Nc1ccc(-c2cnc3ccc(C(=O)N(C)c4ccc(Cl)c(C(F)(F)F)c4)cn23)cn1` [Compound 121, methyl N-[5-[6-[[4-chloro-3-(trifluoromethyl)phenyl]-methyl-carbamoyl]imidazo[1,2-a]pyridin-3-yl]-2-pyridyl]carbamate], which inhibition at 20 ppm is on record?
A: ≥ 80%

Q: `CCOC(=O)c1cccc(N(CC)C(=O)c2ccc3ncc(-c4ccc(NC(=O)OC)nc4)n3c2)c1` [Compound 122, ethyl 3-[ethyl-[3-[6-(methoxycarbonyl-amino)-3-pyridyl]imidazo[1,2-a]pyridine-6-carbonyl]amino]benzoate] was tested. Which inhibition at 20 ppm did it give?
A: ≥ 80%

Q: How did the inhibition at 20 ppm turn out when `COC(=O)Nc1ccc(-c2cnc3ccc(C(=O)N(CCC#N)c4ccc(C)cc4)cn23)cn1` [Compound 125, methyl N-[5-[6-[2-cyanoethyl(p-tolyl)carbamoyl]imidazo[1,2-a]pyridin-3-yl]-2-pyridyl]carbamate] was run?
A: ≥ 80%

Q: For `CCN(C(=O)c1ccc2ncc(-c3ccc(NC(=O)OC)nc3)n2c1)c1ccc(C)c(F)c1` [Compound 127, methyl N-[5-[6-[ethyl-(3-fluoro-4-methyl-phenyl)carbamoyl]imidazo [1,2-a]pyridin-3-yl]-2-pyridyl]carbamate], which inhibition at 20 ppm is on record?
A: ≥ 80%

Q: For `CCN(C(=O)c1ccc2ncc(-c3ccc(NC(=O)OC)nc3)n2c1)c1cccc(C#N)c1` [Compound 141, methyl N-[5-[6-[(3-cyanophenyl)-ethyl-carbamoyl]imidazo[1,2-a]pyridin-3-yl]-2-pyridyl]carbamate], which inhibition at 20 ppm is on record?
A: ≥ 80%

Q: With `COC(=O)Nc1ccc(-c2cnc3ccc(C(=O)N(CC#N)c4ccc(C)cc4)cn23)cn1` [Compound 143, methyl N-[5-[6-[cyanomethyl(p-tolyl)carbamoyl]imidazo [1,2-a]pyridin-3-yl]-2-pyridyl]carbamate] as the compound, how does the inhibition at 20 ppm read?
A: ≥ 80%

Q: With `CCN(C(=O)c1ccc2ncc(-c3ccc(NC(=O)OC)nc3)n2c1)c1cccc(F)c1` [Compound 145, methyl N-[5-[6-[ethyl-(3-fluorophenyl)carbamoyl]imidazo[1,2-a]pyridin-3-yl]-2-pyridyl]carbamate] as the compound, how does the inhibition at 20 ppm read?
A: ≥ 80%

Q: `COC(=O)Nc1ccc(-c2cnc3ccc(C(=O)N(c4ccccc4)C4CC4)cn23)cn1` [Compound 147, methyl N-[5-[6-[cyclopropyl(phenyl)carbamoyl]imidazo [1,2-a]pyridin-3-yl]-2-pyridyl]carbamate] was tested. Which inhibition at 20 ppm did it give?
A: ≥ 80%

Q: How did the inhibition at 20 ppm turn out when `COC(=O)Nc1ccc(-c2cnc3ccc(C(=O)N(CCC#N)c4ccc(Cl)c(C)c4)cn23)cn1` [Compound 148, methyl N-[5-[6-[(4-chloro-3-methyl-phenyl)-(2-cyanoethyl)carbamoyl]imidazo[1,2-a]pyridin-3-yl]-2-pyridyl]carbamate] was run?
A: ≥ 80%
